Measured values: US12655116B2, “Substituted isophthalic acid diamides” (Bayer Aktiengesellschaft, priority 2020, dated 2026)

Assays:
[1] = tested on: AMARE; experiment: Pre-emergence herbicidal action against AMARE; format: in vivo, Amaranthus retroflexus
Method in brief: (§1)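 Visual rating at 3 weeks vs untreated pots; 0–100% scale, 100% = plants died. Treatment: aqueous WP/EC spray onto covering soil, 600–800 l/ha, 0.2% wetter, seeds in sandy loam.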

[2] = tested on: VIOTR; experiment: Post-emergence herbicidal action against VIOTR; format: in vivo, Viola tricolor; details: Viola tricolor, 504 h, 20 g/ha
Method in brief: (§2)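 Greenhouse pot plants in sandy loam were sprayed at the one-leaf stage, 2 to 3 weeks after sowing, with WP or EC formulations as aqueous suspension or emulsion (600 to 800 l/ha water, 0.2% wetting agent). About 3 weeks later, damage was scored visually against untreated controls as % action (100% = dead, 0% = like control).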

[3] = tested on: POLCO; experiment: Pre-emergence herbicidal action against POLCO; format: in vivo, Polygonum convolvulus
Method in brief: as §1

[4] = tested on: VERPE; experiment: Post-emergence herbicidal action against VERPE; format: in vivo, Veronica persica
Method in brief: as §2

[5] = tested on: LOLRI; experiment: Pre-emergence herbicidal action against LOLRI; format: in vivo, Lolium rigidum; details: 80 g/ha
Method in brief: as §1

[6] = tested on: ABUTH; experiment: Post-emergence herbicidal action against ABUTH; format: in vivo, Abutilon theophrasti; details: visual assessment about 3 weeks after treatment vs untreated controls
Method in brief: as §2

[7] = tested on: ALOMY; experiment: Post-emergence herbicidal action against ALOMY; format: in vivo, Alopecurus myosuroides; details: visual assessment about 3 weeks after treatment vs untreated controls
Method in brief: as §2

[8] = tested on: MATIN; experiment: Post-emergence herbicidal action against MATIN; format: in vivo, Matricaria inodora
Method in brief: as §2

[9] = tested on: VIOTR; experiment: Pre-emergence herbicidal action against VIOTR; format: in vivo, Viola tricolor
Method in brief: as §1

[10] = tested on: VERPE; experiment: Pre-emergence herbicidal action against VERPE; format: in vivo, Veronica persica
Method in brief: as §1

[11] = tested on: SETVI; experiment: Pre-emergence herbicidal action against SETVI; format: in vivo, Setaria viridis
Method in brief: as §1

[12] = tested on: ECHCG; experiment: Post-emergence herbicidal action against ECHCG; format: in vivo, Echinochloa crus-galli; details: dosage 20 g/ha
Method in brief: as §2

[13] = tested on: MATIN; experiment: Pre-emergence herbicidal action against MATIN; format: in vivo, Matricaria inodora
Method in brief: as §1

[14] = tested on: DIGSA; experiment: Pre-emergence herbicidal action against DIGSA; format: in vivo, Digitaria sanguinalis
Method in brief: as §1

[15] = tested on: ABUTH; experiment: Pre-emergence herbicidal action against ABUTH; format: in vivo, Abutilon theophrasti
Method in brief: as §1

[16] = tested on: AMARE; experiment: Post-emergence herbicidal action against AMARE; format: in vivo, Amaranthus retroflexus; details: 20 g/ha, visual assessment about 3 weeks after treatment, 100% = plants have died, 0% = like control plants
Method in brief: as §2

[17] = tested on: SETVI; experiment: Post-emergence herbicidal action against SETVI; format: in vivo, Setaria viridis
Method in brief: as §2

[18] = tested on: AVEFA; experiment: Pre-emergence herbicidal action against AVEFA; format: in vivo, Avena fatua; details: 80 g/ha, pre-emergence
Method in brief: as §1

[19] = tested on: PHBPU; experiment: Post-emergence herbicidal action against PHBPU; format: in vivo, Pharbitis purpurea
Method in brief: as §2

[20] = tested on: DIGSA; experiment: Post-emergence herbicidal action against DIGSA; format: in vivo, Digitaria sanguinalis
Method in brief: as §2

[21] = tested on: PHBPU; experiment: Pre-emergence herbicidal action against PHBPU; format: in vivo, Pharbitis purpurea; details: dosage 80 g/ha
Method in brief: as §1

[22] = tested on: ECHCG; experiment: Pre-emergence herbicidal action against ECHCG; format: in vivo, Echinochloa crus-galli
Method in brief: as §1

[23] = tested on: ALOMY; experiment: Pre-emergence herbicidal action against ALOMY; format: in vivo, Alopecurus myosuroides; details: pre-emergence
Method in brief: as §1

[24] = Tripleurospermum inodorum, 504 h, dosage 20 g/ha
[25] = Setaria viridis, 504 h, dosage 20 g/ha
[26] = 80 g/ha, scored visually after 3 weeks vs untreated controls (100% = plants have died, 0% = like control plants)

## CCNC(=O)c1c(C(F)(F)C(F)(F)F)ccc(C(=O)Nc2nnnn2C)c1Cl [Example 1-166]
[1]; Amaranthus retroflexus, 504 h, 20 g/ha, scored visually after 3 weeks vs untreated controls, 100% = plants have died, 0% = like control plants
  pest or weed control at 20 g/ha: 100%
[1]; Amaranthus retroflexus, 504 h, 80 g/ha, scored visually after 3 weeks vs untreated controls, 100% = plants have died, 0% = like control plants
  pest or weed control at 80 g/ha: 100%
[2]
  pest or weed control at 20 g/ha: 80%
[3]; Fallopia convolvulus, 504 h, dosage 20 g/ha
  pest or weed control at 20 g/ha: 100%
[3]; Fallopia convolvulus, 504 h, dosage 80 g/ha
  pest or weed control at 80 g/ha: 100%
[4]; Veronica persica, 504 h, 5 g/ha
  pest or weed control at 5 g/ha: 80%
[4]; Veronica persica, 504 h, 20 g/ha
  pest or weed control at 20 g/ha: 90%
[5]; Lolium rigidum, 504 h
  pest or weed control at 80 g/ha: 80%
[6]; Abutilon theophrasti, 504 h, dosage 5 g/ha
  pest or weed control at 5 g/ha: 90%
[6]; Abutilon theophrasti, 504 h, dosage 20 g/ha
  pest or weed control at 20 g/ha: 90%
[7]; Alopecurus myosuroides, 504 h, dosage 5 g/ha
  pest or weed control at 5 g/ha: 80%
[7]; Alopecurus myosuroides, 504 h, dosage 20 g/ha
  pest or weed control at 20 g/ha: 90%
[8]; Tripleurospermum inodorum, 504 h, dosage 5 g/ha
  pest or weed control at 5 g/ha: 80%
[8]; [24]
  pest or weed control at 20 g/ha: 80%
[9]; Viola tricolor, 504 h, dosage 20 g/ha
  pest or weed control at 20 g/ha: 100%
[9]; Viola tricolor, 504 h, dosage 80 g/ha
  pest or weed control at 80 g/ha: 100%
[10]; Veronica persica, 504 h, dosage 20 g/ha
  pest or weed control at 20 g/ha: 80%
[10]; Veronica persica, 504 h, dosage 80 g/ha
  pest or weed control at 80 g/ha: 100%
[11]; [25]
  pest or weed control at 20 g/ha: 80%
[11]; Setaria viridis, 504 h, dosage 80 g/ha
  pest or weed control at 80 g/ha: 100%
[12]; Echinochloa crus-galli, 504 h
  pest or weed control at 20 g/ha: 90%
[13]; [24]
  pest or weed control at 20 g/ha: 100%
[13]; Tripleurospermum inodorum, 504 h, dosage 80 g/ha
  pest or weed control at 80 g/ha: 100%
[14]; Digitaria sanguinalis, 504 h, dosage 80 g/ha
  pest or weed control at 80 g/ha: 90%
[15]; Abutilon theophrasti, 504 h, 80 g/ha, scored visually after 3 weeks vs untreated controls (100% = plants have died, 0% = like control plants)
  pest or weed control at 80 g/ha: 100%
[15]; Abutilon theophrasti, 504 h, dosage 20 g/ha, scored visually after 3 weeks vs untreated controls, 100% = plants have died, 0% = like control plants, read-out: Pre-emergence action against ABUTH (herbicidal activity in percent)
  pest or weed control at 20 g/ha: 90%
[16]; Amaranthus retroflexus, 504 h
  pest or weed control at 20 g/ha: 90%
[17]; Setaria viridis, 504 h, dosage 5 g/ha
  pest or weed control at 5 g/ha: 90%
[17]; [25]
  pest or weed control at 20 g/ha: 90%
[18]; Avena fatua, 504 h
  pest or weed control at 80 g/ha: 100%
[19]; Ipomoea purpurea, 504 h, dosage 5 g/ha
  pest or weed control at 5 g/ha: 80%
[19]; Ipomoea purpurea, 504 h, dosage 20 g/ha
  pest or weed control at 20 g/ha: 90%
[20]; Digitaria sanguinalis, 504 h, 5 g/ha
  pest or weed control at 5 g/ha: 90%
[20]; Digitaria sanguinalis, 504 h, 20 g/ha
  pest or weed control at 20 g/ha: 90%
[21]; Ipomoea purpurea, 504 h
  pest or weed control at 80 g/ha: 80%
[22]; Echinochloa crus-galli, 504 h, 20 g/ha
  pest or weed control at 20 g/ha: 90%
[22]; Echinochloa crus-galli, 504 h, 80 g/ha
  pest or weed control at 80 g/ha: 100%
[23]; Alopecurus myosuroides, 504 h, 80 g/ha, scored visually after 3 weeks vs untreated controls (100% = plants have died, 0% = like control plants)
  pest or weed control at 80 g/ha: 100%
[23]; Alopecurus myosuroides, 504 h, 20 g/ha, scored visually after 3 weeks, 100% = plants have died, 0% = like control plants
  pest or weed control at 20 g/ha: 90%

## CCn1nnnc1NC(=O)c1ccc(C(F)F)c(C(=O)NC(C)C2CC2)c1C (stereo not shown) [Example 2-339]
[1]; 20 g/ha, scored visually after 3 weeks vs untreated controls, 100% = plants have died, 0% = like control plants
  Pre-emergence action against AMARE in %: 100%
[1]; [26]
  Pre-emergence action against AMARE in %: 100%
[3]; dosage 80 g/ha
  Pre-emergence action against POLCO in %: 80%
[4]; 20 g/ha
  Post-emergence action against VERPE in %: 80%
[5]
  Pre-emergence action against LOLRI in %: 80%
[6]; dosage 5 g/ha
  Post-emergence action against ABUTH in %: 80%
[6]; dosage 20 g/ha
  Post-emergence action against ABUTH in %: 80%
[7]; dosage 20 g/ha
  Post-emergence action against ALOMY in %: 80%
[8]; dosage 20 g/ha
  Post-emergence action against MATIN in %: 80%
[9]; dosage 20 g/ha
  Pre-emergence action against VIOTR in %: 100%
[9]; dosage 80 g/ha
  Pre-emergence action against VIOTR in %: 100%
[10]; dosage 20 g/ha
  Pre-emergence action against VERPE in %: 80%
[10]; dosage 80 g/ha
  Pre-emergence action against VERPE in %: 100%
[11]; dosage 80 g/ha
  Pre-emergence action against SETVI in %: 100%
[12]
  Post-emergence action against ECHCG in %: 90%
[13]; dosage 20 g/ha
  Pre-emergence action against MATIN in %: 100%
[13]; dosage 80 g/ha
  Pre-emergence action against MATIN in %: 100%
[14]; dosage 20 g/ha
  Pre-emergence action against DIGSA in %: 100%
[14]; dosage 80 g/ha
  Pre-emergence action against DIGSA in %: 100%
[15]; [26]
  Pre-emergence action against ABUTH (herbicidal activity): 100%
[15]; dosage 20 g/ha, scored visually after 3 weeks vs untreated controls, 100% = plants have died, 0% = like control plants
  Pre-emergence action against ABUTH (herbicidal activity in percent): 100%
[16]
  Post-emergence action at 20 g/ha against AMARE in %: 90%
[17]; dosage 20 g/ha
  Post-emergence action against SETVI in %: 100%
[18]
  Pre-emergence action against AVEFA in %: 80%
[19]; dosage 5 g/ha
  Post-emergence action against PHBPU in %: 90%
[19]; dosage 20 g/ha
  Post-emergence action against PHBPU in %: 90%
[20]; 5 g/ha
  Post-emergence action against DIGSA in %: 80%
[20]; 20 g/ha
  Post-emergence action against DIGSA: 90%
[21]
  Pre-emergence action against PHBPU in %: 80%
[22]; 80 g/ha
  Pre-emergence action against ECHCG in %: 100%
[23]; [26]
  Pre-emergence action against ALOMY (herbicidal activity): 90%
